The record followed here is PMC12156344, “Furin-Triggered Peptide Self-Assembly Activates Coumarin Excimer Fluorescence for Precision Live-Cell Imaging” (Molecules, 2025).

Peptide text beside a SMILES is read from it. * marks the point of attachment. DEAC = CCN(CC)c1ccc2cc(C(=O)*)c(=O)oc2c1

The nature of data set [1]: Critical micelle concentration (CMC) measurement by transmittance. As to conditions: furin working buffer.
Procedure: The transmittance spectra of the solutions were measured using a UV-3600 spectrophotometer (SHIMADZU, Kyoto, Japan).
Assay in data set [2]: not given
The source holds these as a separate data set.

Assay in data set [3]: not given
The source holds these as a separate data set.

Assay in data set [4]: not given
This is another data set of the same source.

Data set [5] in a line: Transmission electron microscopy (TEM) of self-assembly. Format: physicochemical. The following applies: aqueous solution, particle size distribution histogram (Figure 3b, S10). The source says: (§1) Next, we examined the factors driving excimer formation. […] […].
Data set [6] is described as follows: Concentration-dependent fluorescence (excimer formation) in furin working buffer. The data set is classed as physicochemical. The following applies: under UV irradiation (365 nm lamp). The method, then:
In the next phase, we investigated the optical properties of RF-Cou and its enzymatic product F-Cou. […] In contrast, as the concentration increased, a new emission peak around 550 nm gradually emerged in the fluorescence spectra of F-Cou. […] These observations confirmed the formation of Cou excimers.
Figure 2 The fluorescence emission spectra and images of RF-Cou (a,c) and F-Cou (b,d) at different concentrations in furin working buffer. […] The fluorescence spectra were conducted with the excitation of 430 nm and the slit width of 5 nm. The fluorescence images were taken under the 365 nm UV lamp irradiation.

Data set [7] is described as follows: Dynamic light scattering (DLS). The following applies: solution; DLS (Figure S11). Format: physicochemical.
From the text: as §1

For another data set, the system named is L929 normal cells. Briefly: Confocal live-cell fluorescence imaging, L929 cells. Format: cell-based, mouse. The following applies: 200 μM. The method, then:
(§2) 4T1 cells or L929 cells were seeded on confocal dishes (1 × 10^5 cells/dish) and incubated at 37 °C in a humidified atmosphere of 5% CO2 for 24 h. Following the removal of the conditioned medium, 4T1 cells or L929 cells were treated with RF-Cou (200 μM) at various times (0, 0.5, 1, 2, 4, 6, and 8 h). After the incubation was completed, the medium was discarded, PBS was added to clean the cells three times, and laser confocal scanning microscopy was used for cell imaging. To investigate the role of furin in activating excimer fluorescence, 4T1 cells were pre-incubated with 1 mM of furin inhibitor II (Inh) for 30 min and then treated with RF-Cou (200 μM) for 0.5 h or 6 h before imaging.
(§3) Figure 5 (a) Confocal fluorescence images of furin-overexpressing 4T1 cells or normal L929 cells incubated with 200 μM RF-Cou at varying time points; λex = 405 nm, monomer channel (blue) λem = 415–485 nm; excimer channel (green) λem = 520–600 nm; Scale bar: 50 μm. Time-dependent relative fluorescence intensity in monomer and excimer channels of 4T1 (b) or L929 (c) cells, respectively (n = 3, mean ± SD).
Figure 6 (a) Confocal fluorescence images of 4T1 or L929 cells incubated with 200 μM RF-Cou for 0.5 h or 6 h after being treated with or without furin inhibitor (Inh); λex = 405 nm, monomer channel (blue) λem = 415–485 nm; excimer channel (green) λem = 520–600 nm; Scale bar: 50 μm. […]

Data set [8] deals with normal mouse fibroblast L929 cells. The data set is classed as cell-based. The following applies: 200 µM. As to the method: 4T1 mouse breast cancer cells or L929 mouse fibroblast cells were cultured in RPMI-1640 medium or Dulbecco’s Modified Eagle’s medium (DMEM) supplemented with 10% v/v FBS, 100 U/mL penicillin, 100 μg/mL streptomycin, and 0.25 μg/mL amphotericin B, respectively. These cells were incubated at 37 °C in a humidified atmosphere of 5% CO2. First, the cells (4T1, L929 cell lines) were seeded in 96-well plates (3 × 10^3 cells in each well) and incubated in a 37 °C cell incubator for 24 h. The RPMI-1640 medium or DMEM was replaced with different concentrations of RF-Cou (0, 1.5, 3.1, 6.2, 12.5, 25.0, 50.0, 100, and 200 μM) in the medium and incubated for 24 h or 48 h, respectively. MTT (5 mg/mL, 10 μL) was then added to each well, and the cells were incubated for another 4 h. The formed formazan crystals were dissolved by DMSO (100 μL per well), and the absorbance at 570 nm was measured using a microplate reader (BioTek, Winooski, VT, USA).

The test system of data set [9] is furin-overexpressing 4T1 tumor cells. The experiment in a line: Confocal live-cell fluorescence imaging of furin activity, 4T1 cells. The following applies: 200 μM. The data set is classed as cell-based, mouse. The method, then:
as §2, §3
Figure 6 (a) Confocal fluorescence images of 4T1 or L929 cells incubated with 200 μM RF-Cou for 0.5 h or 6 h after being treated with or without furin inhibitor (Inh); λex = 405 nm, monomer channel (blue) λem = 415–485 nm; excimer channel (green) λem = 520–600 nm; Scale bar: 50 μm. Fluorescence intensity in monomer and excimer channels of 4T1 (b) or L929 (c) cells, respectively (n = 3, mean ± SD). Flow cytometry results of the excimer channel fluorescence in 4T1 (d) or L929 (e) incubated with 200 μM RF-Cou for 6 h after being treated with or without Inh.

The target of the next data set is furin (Homo sapiens, UniProt P09958). Format: biochemical. The following applies: 200 μM with 50 U/mL furin, 37 °C, 12 h. The method, then:
Based on the above in vitro experiments, we concluded that RF-Cou existed as a blue fluorescent monomer in aqueous solution. […] These findings validated the feasibility of using RF-Cou for subsequent precision live-cell imaging studies of furin activity.
Figure 3 (a) Fluorescence decay profiles of the first emission peak at 475 nm (blue) and the last emission peak at 550 nm (green) of 200 μM F-Cou; λex = 405 nm. (b) TEM image of F-Cou. Inset: the particle size distribution histogram. (c) LC-MS traces of 200 μM RF-Cou incubated with or without 50 U/mL furin at 37 °C for 12 h. The blue line corresponds to the probe RF-Cou, and the green line represents its cleavage product F-Cou. TEXT PRINTED IN THE PICTURE: (a) no label printed: First peak at 475 nm <τ> = 4.26 ns; Last peak at 550 nm <τ> = 10.73 ns | (b) no label printed: d = 51.1 ± 9.8 nm

Assay in data set [10]: not given
This is another data set of the same source.

Sequence of furin (P09958 108-794, species assumed): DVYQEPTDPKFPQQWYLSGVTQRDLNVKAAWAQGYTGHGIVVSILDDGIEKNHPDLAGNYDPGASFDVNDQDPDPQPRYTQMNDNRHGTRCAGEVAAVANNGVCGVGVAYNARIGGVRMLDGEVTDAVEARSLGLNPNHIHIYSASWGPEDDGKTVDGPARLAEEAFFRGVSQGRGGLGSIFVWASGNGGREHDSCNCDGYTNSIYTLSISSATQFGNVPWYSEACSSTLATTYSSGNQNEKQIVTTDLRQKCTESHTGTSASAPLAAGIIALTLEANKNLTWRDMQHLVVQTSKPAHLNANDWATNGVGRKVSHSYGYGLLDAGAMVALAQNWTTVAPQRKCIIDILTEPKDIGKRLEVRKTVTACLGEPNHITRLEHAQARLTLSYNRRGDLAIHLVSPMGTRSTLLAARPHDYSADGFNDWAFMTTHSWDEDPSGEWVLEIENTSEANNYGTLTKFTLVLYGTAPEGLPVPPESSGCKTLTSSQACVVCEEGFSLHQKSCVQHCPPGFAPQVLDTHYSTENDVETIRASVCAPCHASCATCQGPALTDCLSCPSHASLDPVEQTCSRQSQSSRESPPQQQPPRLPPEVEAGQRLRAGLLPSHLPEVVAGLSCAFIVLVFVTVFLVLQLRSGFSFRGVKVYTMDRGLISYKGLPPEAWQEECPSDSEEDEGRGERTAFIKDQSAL

The logP is a log measure of how a compound divides between an organic and an aqueous phase. As for `CCN(CC)c1ccc2cc(C(=O)NCCCC[C@H](N)C(=O)N[C@@H](Cc3ccccc3)C(=O)N[C@@H](Cc3ccccc3)C(=O)O)c(=O)oc2c1` [F-Cou, Lys(Cou)-Phe-Phe-OH], the fluorescence lifetime <τ>, 550 nm emission peak came out at 10.7 ns. In addition, the “Critical micelle concentration (CMC)” value in [1] (transmittance-concentration curve at 600 nm (Figure S9)) was found to be 45.1 µM. In data set [2], the fold enhancement of fluorescence lifetime, 550 nm vs 475 nm band was determined as 2.5 fold. Besides, the maximum absorption peak in [3] is 430 nm. The compound further registered a fluorescence lifetime <τ>, 475 nm emission peak in data set [4] of 4.26 ns. In addition, the “Nanoparticle diameter by TEM” value in [5] was determined as 51.1 ± 9.8 nm. Also, the “Concentration above which the solution changes from blue to green (excimer formation)” value in data set [6] is recorded as “exceeded 31.25 μM”. The “Hydrodynamic diameter by DLS” value in data set [7] is reported as 69.2 ± 18.4 nm. Further, the logP in the data set “physchem” was 1.15.
Take `CCN(CC)c1ccc2cc(C(=O)NCCCC[C@H](NC(=O)[C@H](CCCNC(=N)N)NC(=O)[C@H](CCCNC(=N)N)NC(=O)[C@@H](NC(=O)[C@H](CCCNC(=N)N)NC(C)=O)C(C)C)C(=O)N[C@@H](Cc3ccccc3)C(=O)N[C@@H](Cc3ccccc3)C(=O)O)c(=O)oc2c1` [RF-Cou, Ac-Arg-Val-Arg-Arg-Lys(Cou)-Phe-Phe-OH] (Ac-RVRRK(DEAC)FF-OH): the “Transmittance (self-assembly performance)” value in data set [1] (concentrations up to 800 μM, transmittance at 600 nm, UV-3600 spectrophotometer) is reported as more than 95%. Moreover, the Cellular uptake entry in the data set with L929 normal cells (0.5 h, confocal fluorescence) is recorded as “successful cellular uptake”; in [9] (4T1 cells with or without Inh pretreatment, 0.5 h, confocal fluorescence), “successful cellular uptake”. Further, the “Monomer channel fluorescence intensity vs excimer channel” value with L929 normal cells (6 h, λex 405 nm, excimer 520–600 nm, monomer 415–485 nm, n = 3) is recorded as “approximately 5.1 fold”. For the same compound, the Cell viability entry in data set [8] is reported as “over 80%”. Further, the “Excimer fluorescence after furin inhibitor pretreatment” value in data set [9] (4T1 cells pretreated with 1 mM furin inhibitor II (Inh) for 30 min, 6 h) is given as “significantly weaker than that in cells without Inh pretreatment”. In addition, the “Excimer channel fluorescence intensity vs monomer channel” value in data set [9] (4T1 cells, peak at 6 h, λex 405 nm, excimer 520–600 nm, monomer 415–485 nm, n = 3) is 3.2 fold. In data set [3], the maximum absorption peak came out at 430 nm. Besides, the “Cleavage by furin, LC-MS” value on furin is recorded as “could be enzymatically processed by furin to generate F-Cou”. In [10], this compound came in with a maximum emission peak of 475 nm. For the same compound, in data set [5], the “Nanoparticle diameter by TEM” value is recorded as “no nanoparticle distribution was observed”. Moreover, the “Hydrodynamic diameter by DLS” value in data set [7] is “no detectable signal corresponding to nanoparticles”. Also, in the data set “physchem”, the logP is -1.46.
